According to US20230414657A1, “Novel compositions for neutralizing toxic effects of hydrogen peroxide in living cells or tissues” (Dzala LLC, priority 2020, published 2023):

Experiments:
C. elegans [1] = test: Peroxide treatment of mutant, RNAi or unstressed worms: MMP, OCR and growth read together; assay type: in vivo
Text: C. elegans wild-type (N2) strain was received from Caenorhabditis Genetics Center, USA. Mutant strains were generated using the following primers. Idh-1: […] and […]; C31C9.2 (ghpr-1): […] and […]and F41E6.5 (gox-1): […]and[…]. […] Progeny of the rescued strains were genotyped for homozygous deletion with PCR primers for three generations. All mutants were outcrossed at least twice with the wild type to eliminate background mutations. Double and triple mutants were obtained by crossing single or double mutants and selecting the homozygous progeny by PCR.
For RNAi experiments in liquid, E. coli HT115 containing L4440 empty vector or the indicated cDNA fragment in L4440 was inoculated in 100 ml of LB containing 100 μg/ml ampicillin and incubated overnight at 37° C. in a shaking incubator at 250 rpm. To induce the production of dsRNA, a final concentration 0.8 mM IPTG was added to the collected bacterial pellet diluted 100-fold and incubated overnight at 25° C. in a shaking incubator at 250 rpm. Bacteria were then pelleted by centrifugation at 4000 rpm for 5 mins and resuspended in 200 μl S-medium containing 100 μg/ml ampicillin and 0.8 mM IPTG.
A population of synchronized L1 larvae was added to 30-ml glass tubes containing 2.5 ml of S-complete medium (liquid culture)^2 and NA22 or induced RNAi bacteria at an OD600 of 1.9. […] Worms were incubated at 15° C. and 150 rpm in a shaking incubator for 2-6 days, refreshing the medium every 2 days.
Mitochondrial staining was performed as described previously^3,4. Briefly, L1 worms were grown on plate or in liquid culture for 2-3 days at 15° C. Subsequently, they were pelleted in a 15-ml tube, rinsed twice with H2O and resuspended in 100 μl of M9. 5 μM MitoTracker Red CMXRos (Thermo Fisher Scientific, Germany) in DMSO was added to the worm suspension and incubated in this solution for 1.5 hr at room temperature in the dark. Next, the excess dye was washed off with M9 buffer and worms were incubated in 100 μl M9 for 30 min to eliminate the excess dye in the gut. Finally, worms were paralyzed with 0.5 mM Levamizol (Sigma-Aldrich), placed on slides covered with a thin layer of 2% agarose on top of which the coverslip (22×22 mm, Menzel-Glaser no. 1) was fixed using nail polish. We used a Zeiss LSM 700 inverted laser scanning confocal microscope and a Zeiss LCI Plan-Neofluar 63×/1.3 ImmCorr DIC M27 objective to image mitochondria (Zeiss, Germany). MitoTracker Red CMXRos was excited at 555 nm and the emission above 560 nm was acquired by the second PMT. Optical sections at 0.1×0.1×0.5 μm^3 x-y-z resolution were collected in a 4D hyperstack. Final images were adjusted for intensity and merged in Fiji. No non-linear adjustments were made.
Synchronized L1 worms were incubated at 15° C. on plates or in liquid culture and exposed to different conditions as indicated. Single worms were selected randomly from the plates or aliquots were taken from the liquid cultures and added to NGM plates for immediate visualization. 25 worms per treatment were measured at 24-48 hr intervals and all growth curves were done four times. Images were analyzed using FIJI (Image J) software, with length measurements derived by the sum-total of a number of segmented lines of known length, down the center of the worm as described previously^5.
Oxygen consumption of worms was measured with a Seahorse XFe96 system (Seahorse Bioscience, North Billerica, MA), as previously described^4. L3 larvae of the different strains were grown on plates or in liquid culture and supplemented for 2-4 days as described for each experiment. After removing bacteria and debris, approximately 100 worms were pipetted into each well of a 96-well Seahorse XF^e assay plate and OCR was measured until it stabilized. Then, 3 subsequent measurements were made at 6.5-min intervals. Finally, the exact number of worms in each well was counted and used for normalization.

C. elegans [2] = test: Growth rate / worm size; assay type: in vivo; details: 100 mM H2O2 plus supplement (10 mM GA, 100 μM glycine or 500 μM L-serine)
Experimental: Synchronized L1 worms were incubated at 15° C. on plates or in liquid culture and exposed to different conditions as indicated. Single worms were selected randomly from the plates or aliquots were taken from the liquid cultures and added to NGM plates for immediate visualization. 25 worms per treatment were measured at 24-48 hr intervals and all growth curves were done four times.

For `O=C(O)CO` [GA, glycolic acid], the “Impact on any of the parameters analyzed (FIGS. 1 and 2)” value (C. elegans [1]; GA supplementation in the absence of H2O2) was “does not have a significant impact”, the “Restoration of MMP, OCR or growth rate” value (C. elegans [1]; H2O2, RNAi against mel-32 or gcst-1) was “none of these three compounds were able to restore” and the “MMP, OCR, growth rate” value (C. elegans [1]; H2O2, worms fed with empty vector RNAi bacteria) was “restored parameters”. For the same compound, the “Glycolate-mediated protection (MMP, OCR, growth)” value (C. elegans [1]; ghpr-1, gox-1, ldh-1 triple mutant, H2O2) was “totally abolished”, the “Effect of glycolate on MMP, oxygen consumption rate and developmental rate” value (C. elegans [1]; ghpr-1 deletion mutant, H2O2 treatment) was “significantly reduced effect” and the “Effect of glycolate on MMP, OCR or growth” value (C. elegans [1]; single mutants of gox-1 and ldh-1 or their double mutants, H2O2) was “no reduction in the effect”. The Growth (C. elegans [2]) was “able to restore both traits”.
